Results taken from ChEMBL document CHEMBL1146578, “10-Methoxydihydrofuscin, fuscinarin, and fuscin, novel antagonists of the human CCR5 receptor from Oidiodendron griseum” (J Nat Prod, 2003).

molecular target: C-C chemokine receptor type 5 (Homo sapiens, UniProt P51681); assay: Displacement of [125I]human-MIP1-alpha from human CCR5 receptor expressed in CHO cells by SPA; type: cell-based
Sequence (P51681 whole entry): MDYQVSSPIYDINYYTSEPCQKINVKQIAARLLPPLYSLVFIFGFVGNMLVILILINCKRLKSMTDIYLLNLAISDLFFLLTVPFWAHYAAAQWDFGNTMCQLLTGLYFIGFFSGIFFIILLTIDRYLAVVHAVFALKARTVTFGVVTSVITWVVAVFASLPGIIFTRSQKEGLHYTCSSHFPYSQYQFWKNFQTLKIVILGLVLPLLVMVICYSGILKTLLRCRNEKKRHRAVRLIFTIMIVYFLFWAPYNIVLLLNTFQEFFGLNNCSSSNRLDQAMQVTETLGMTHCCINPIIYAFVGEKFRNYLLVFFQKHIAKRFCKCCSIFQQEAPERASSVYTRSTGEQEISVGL

IC50	Structure (SMILES)
154 µM	COC1C(=O)OC(C)c2c(O)c(O)c3c(c21)CCC(C)(C)O3 (stereo not drawn)
80 µM	CC1OC(=O)c2c3c(c(O)c(O)c21)OC(C)(C)CC3 (stereo not drawn) [FUSCINARIN]
21 µM	CC1OC(=O)C=C2C3=C(OC(C)(C)CC3)C(=O)C(O)=C21 (stereo not drawn) [FUSCIN]
